Results: PubChem BioAssay (NCI)
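Cultured in 96-well plates, cells were exposed to test compound for 48 hours across five concentrations. GI50 is the concentration that inhibits growth by half. TGI marks complete inhibition of growth.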

Assays:
Experiment in all cases: NCI anticancer screen, dose series, 48 h
[1] = test system: 786-0 renal
[2] = test system: A498 renal
[3] = test system: A549 NSCLC
[4] = test system: ACHN renal
[5] = test system: BT-549 breast
[6] = test system: CCRF-CEM leukemia
[7] = test system: COLO 205 colon
[8] = test system: DU-145 prostate
[9] = test system: EKVX NSCLC
[10] = test system: HCC-2998 colon
[11] = test system: HCT-15 colon
[12] = test system: HL-60(TB) leukemia
[13] = test system: HOP-62 NSCLC
[14] = test system: HOP-92 NSCLC
[15] = test system: HS 578T breast
[16] = test system: HT29 colon
[17] = test system: IGROV1 ovarian
[18] = test system: K-562 leukemia
[19] = test system: KM12 colon
[20] = test system: MALME-3M melanoma
[21] = test system: MCF7 breast
[22] = test system: MDA-MB-231 breast
[23] = test system: MOLT-4 leukemia
[24] = test system: NCI-H226 lung
[25] = test system: NCI-H23 lung
[26] = test system: NCI-H460 lung
[27] = test system: NCI-H522 lung
[28] = test system: NCI/ADR-RES ovarian
[29] = test system: OVCAR-3 ovarian
[30] = test system: OVCAR-4 ovarian
[31] = test system: OVCAR-5 ovarian
[32] = test system: OVCAR-8 ovarian
[33] = test system: PC-3 prostate
[34] = test system: RPMI-8226 leukemia
[35] = test system: RXF 393 renal
[36] = test system: SF-268 CNS
[37] = test system: SF-295 CNS
[38] = test system: SF-539 CNS
[39] = test system: SK-MEL-2 melanoma
[40] = test system: SK-MEL-28 melanoma
[41] = test system: SK-MEL-5 melanoma
[42] = test system: SK-OV-3 ovarian
[43] = test system: SN12C renal
[44] = test system: SNB-19 CNS
[45] = test system: SNB-75 CNS
[46] = test system: SR leukemia
[47] = test system: SW-620 colon
[48] = test system: T-47D breast
[49] = test system: TK-10 renal
[50] = test system: U251 CNS
[51] = test system: UACC-257 melanoma
[52] = test system: UACC-62 melanoma
[53] = test system: UO-31 renal

C=CCn1c(SCC(=O)Nc2ccc(C(=O)/C=C/c3cc(OC)c(OC)c(OC)c3)cc2)nnc1-c1ccc(Cl)cc1
GI50 [1]: 2.16 µM | TGI [1]: 5.59 µM | GI50 [2]: 2.47 µM | TGI [2]: 10.6 µM | GI50 [3]: 3.61 µM | TGI [3]: 17.3 µM | GI50 [4]: 3.67 µM | TGI [4]: 22 µM | GI50 [5]: 2.4 µM | TGI [5]: 7.79 µM | GI50 [6]: 2.38 µM | TGI [6]: 13.3 µM | GI50 [7]: 4.92 µM | TGI [7]: 67.3 µM | GI50 [8]: 3.73 µM | TGI [8]: 40.9 µM | GI50 [9]: 2.92 µM | TGI [9]: 15.5 µM | GI50 [10]: 2.36 µM | TGI [10]: 5.67 µM | GI50 [11]: 2.68 µM | TGI [11]: 18.8 µM | GI50 [12]: 2.65 µM | TGI [12]: 11.3 µM | GI50 [13]: 3.76 µM | TGI [13]: 23.8 µM | GI50 [14]: 2.47 µM | TGI [14]: 11.8 µM | GI50 [15]: 5.81 µM | TGI [15]: > 100 µM | GI50 [16]: 2.33 µM | TGI [16]: 5.69 µM | GI50 [17]: 2.76 µM | TGI [17]: 13 µM | GI50 [18]: 1.7 µM | TGI [18]: 10.5 µM | GI50 [19]: 1.97 µM | TGI [19]: 5.23 µM | GI50 [20]: 6.69 µM | TGI [20]: 61.5 µM | GI50 [21]: 0.38 µM | TGI [21]: 11.2 µM | GI50 [22]: 3.08 µM | TGI [22]: > 100 µM | GI50 [23]: 2.66 µM | TGI [23]: 11.4 µM | GI50 [24]: 1.94 µM | TGI [24]: 7.42 µM | GI50 [25]: 2.7 µM | TGI [25]: 10.5 µM | GI50 [26]: 3.41 µM | TGI [26]: 13.5 µM | GI50 [27]: 3.25 µM | TGI [27]: 17.4 µM | GI50 [28]: 4.74 µM | TGI [28]: > 100 µM | GI50 [29]: 2.41 µM | TGI [29]: 5.93 µM | GI50 [30]: 3.1 µM | TGI [30]: 21 µM | GI50 [31]: 4.75 µM | TGI [31]: 67.7 µM | GI50 [32]: 2.79 µM | TGI [32]: 15 µM | GI50 [33]: 3.2 µM | TGI [33]: 26.4 µM | GI50 [34]: 0.253 µM | TGI [34]: 1.03 µM | GI50 [35]: 1.47 µM | TGI [35]: 3.37 µM | GI50 [36]: 4.32 µM | TGI [36]: > 100 µM | GI50 [37]: 4.49 µM | TGI [37]: 48.8 µM | GI50 [38]: 2.96 µM | TGI [38]: 9.83 µM | GI50 [39]: 4.52 µM | TGI [39]: 36.6 µM | GI50 [40]: 4.23 µM | TGI [40]: 54.6 µM | GI50 [41]: 2.53 µM | TGI [41]: 14.3 µM | GI50 [42]: 6.01 µM | TGI [42]: 58.3 µM | GI50 [43]: 3.43 µM | TGI [43]: > 100 µM | GI50 [44]: 3.64 µM | TGI [44]: > 100 µM | GI50 [45]: 1.79 µM | TGI [45]: 12.8 µM | GI50 [46]: 1.52 µM | TGI [46]: 7.45 µM | GI50 [47]: 3 µM | TGI [47]: > 100 µM | GI50 [48]: 2.24 µM | TGI [48]: 30.6 µM | GI50 [49]: 7.87 µM | TGI [49]: 61.3 µM | GI50 [50]: 1.73 µM | TGI [50]: 4.38 µM | GI50 [51]: 6.38 µM | TGI [51]: 59.6 µM | GI50 [52]: 2.94 µM | TGI [52]: 25 µM | GI50 [53]: 1.98 µM | TGI [53]: 8.34 µM
